Results on seven compounds are retold here after patent US10869878B2, “Vaginal composition and use thereof” (SINGAPORE ZE&Z INTERNATIONAL PTE. LTD, priority 2014, dated 2020).

For one assay, the system named is BV. Conditions: cited from earlier work; for cure rate for BV: Livengood 2007.
Assay [1] relates to BV-associated bacteria. Put plainly: Acid production by BV-associated bacteria in carbohydrate containing gels, slightly aerobic incubation (Experimental Example 1). Type of assay: cell-based. As to conditions: 1% (w/v) carbohydrate gel. An excerpt: (1) Grouping in experiment: • (1) Isomaltulose group: containing 1% (w/v) isomaltulose, MRS basal medium without carbohydrate, 5% (w/v) calf serum, and 0.5% (w/v) xanthan gum, pH5.4; • (2) Isomaltose group: containing 1% (w/v) isomaltose, MRS basal medium without carbohydrate, 5% (w/v) calf serum, and 0.5% (w/v) xanthan gum, pH5.4; • (3) Sucrose group: containing 1% (w/v) sucrose, MRS basal medium without carbohydrate, 5% (w/v) calf serum, and 0.5% (w/v) xanthan gum, pH5.4; and • (4) Maltose group: containing 1% (w/v) maltose, MRS basal medium without carbohydrate, 5% (w/v) calf serum, and 0.5% (w/v) xanthan gum, pH5.4.
The gel of each group was formulated essentially following the method described in Composition Example 1, then sterilized, added with calf serum, and packed in test tubes in a specification of 5 g/tube, for late use.
(§1) (2) Secretion specimens from BV patients: vaginal secretions from 5 BV patients; and the criteria of inclusion are: • (1) conforming to the Amsel clinical criteria of BV diagnosis, wherein the pH value of the vaginal secretions was >4.6; • (2) after smearing, Gram staining and microscopical examination of vaginal secretions, Nugent score ≥7; and • (3) no other vaginosis and no antimicrobial agent is used within two weeks.
(3) After sampling, the secretion specimens from BV patients meeting the criteria of inclusion were immediately inoculated to the above 4 gels containing a carbohydrate, and slightly aerobically incubated at 37° C. for 46 hrs. The pH values of the gel matrices are detected with a precise pH test paper respectively at 14 hrs, 36 hrs, and 46 hrs.

The subject of assay [2] is BV-associated bacteria. Put plainly: Acid production by BV-associated bacteria in semi-solid agars containing a carbohydrate, anaerobic incubation (Experimental Example 2). Format: cell-based. Conditions: 24 hrs anaerobic, 37° C., 1.5% (w/v) carbohydrate, initial pH 5.4.
From the text: (1) Grouping in experiment: • (1) Glucose group: containing 1.5% (w/v) glucose, MRS basal medium without carbohydrate, 5% (w/v) calf serum, and 0.45% (w/v) agar, pH5.4; • (2) Fructose group: containing 1.5% (w/v) fructose, MRS basal medium without carbohydrate, 5% (w/v) calf serum, and 0.45% (w/v) agar, pH5.4; • (3) Mannose group: containing 1.5% (w/v) mannose, MRS basal medium without carbohydrate, 5% (w/v) calf serum, and 0.45% (w/v) agar, pH5.4; • (4) Sucrose group: containing 1.5% (w/v) sucrose, MRS basal medium without carbohydrate, 5% (w/v) calf serum, and 0.45% (w/v) agar, pH5.4; • (5) Maltose group: containing 1.5% (w/v) maltose, MRS basal medium without carbohydrate, 5% (w/v) calf serum, and 0.45% (w/v) agar, pH5.4; • (6) Isomaltose group: containing 1.5% (w/v) isomaltose, MRS basal medium without carbohydrate, 5% (w/v) calf serum, and 0.45% (w/v) agar, pH5.4; and • (7) Isomaltulose group: containing 1.5% (w/v) isomaltulose, MRS basal medium without carbohydrate, 5% (w/v) calf serum, and 0.45% (w/v) agar, pH5.4.
The semi-solid agar of each group was formulated essentially following the method described in Composition Example 1, then sterilized, added with calf serum, and packed in test tubes in a specification of 5 g/tube, for late use.
as §1
(3) After sampling, the secretion specimens from BV patients meeting the criteria of inclusion were immediately inoculated to the above 7 aseptic semi-solid agars containing a carbohydrate at the bedside and anaerobically incubated at 37° C. for 24 hrs. The pH values of the agar matrices are detected with a precise pH test paper.

Assay [3] concerns Lactobacilli in the secretions from BV patients. Put plainly: Selective promotion of carbohydrate containing gels for the growth of Lactobacilli, 16s rDNA identification (Experimental Example 4). Format: cell-based. Conditions: secretions from 20 BV patients; 1% (w/v) carbohydrate gel, 48 hrs slightly aerobic. As for the experimental part:
(§2) (3) After sampling, the vaginal secretion specimens from BV patients meeting the criteria of inclusion were immediately inoculated to the above 4 gels containing a carbohydrate, slightly aerobically incubated at 37° C. for 48 hrs, then transferred to a plate containing improved MRS with 1% (w/v) glucose and 5% (w/v) calf serum, slightly aerobically incubated for 20-48 hrs, isolated, purified and multiplied. The strain was identified by 16s rDNA sequencing.

Assay [4] concerns Bifidobacteria in the secretions from BV patients. Put plainly: Selective promotion of carbohydrate containing gels for the growth of Bifidobacteria (Experimental Example 4). Format: cell-based. Conditions: secretions from 20 BV patients; 1% (w/v) carbohydrate gel, 48 hrs slightly aerobic. How it is done: as §2
The test system of assay [5] is Gardnerella vaginalis in the secretions from BV patients. Put plainly: Selective promotion of carbohydrate containing gels for the growth of Gardnerella vaginalis (Experimental Example 4). As to conditions: secretions from 20 BV patients; 1% (w/v) carbohydrate gel, 48 hrs slightly aerobic. Type of assay: cell-based. As for the experimental part: as §2
Another assay has as its system Canidia albicans. Put plainly: Metabolization of carbohydrates by Canidia albicans, residual carbohydrate by HPLC (Experimental Example 5). Type of assay: cell-based. Conditions: for residual carbohydrate content by HPLC: 72 hrs aerobic, 37° C., initial 1.5% (w/v) carbohydrate, pH 7.0, detection limit 0.05% (w/v). As for the experimental part: (1) Grouping in experiment:
(2) Test strain: 2 strains of Canidia albicans, isolated from patients with candidal vaginitis.
The supernatant was separated by centrifugation, and packed in a specification of 5 ml/tube. The carbohydrate content in each tube was detected by HPLC.

A further assay concerns L. jensenii. As to conditions: medium with 0.5% (w/v) isomaltulose, pH 5.4.
Another assay deals with Candida glabrada isolate. Conditions: medium with 0.5% (w/v) isomaltulose, pH 5.4.
Setting [6] is: 0.02% (w/v) sodium dehydroacetate.

Like-named read-outs stand apart in the source and are kept apart here. Some results are limits rather than exact numbers.

From the text for Candida glabrada isolate: (§3) The following culture media containing different concentrations of preservatives were formulated with a basal medium containing 0.5% (w/v) isomaltulose, MRS medium without carbohydrate, and 5% (w/v) calf serum:
A. 0.1% (w/v) sodium benzoate
B. 0.2% (w/v) sodium benzoate
C. 0.02% (w/v) sodium dehydroacetate
D. 0.25% (w/v) sodium propionate group
E. 0.5% (w/v) sodium propionate group
(§4) F. 0.02% (w/v) sodium dehydroacetate+0.25% (w/v) sodium propionate group
(§5) G. 0.02% (w/v) sodium dehydroacetate+0.5% (w/v) sodium propionate group
(§6) The culture medium of each group was adjusted to pH 5.4, sterilized and packed in a test tube in a specification of 2 ml/tube.
(§7) (2) Inoculation and incubation of test strains: a bacterial suspension containing (1-5)×10^5 cfu/ml Candida glabrada isolate and a bacterial suspension containing (1-5)×10^5 cfu/ml L. jensenii were inoculated to each tube respectively. The Candida glabrada was aerobically incubated at 37° C. for 72 hrs, and the L. jensenii was microaerophilic incubated for 22 hrs.
From the text for L. jensenii: as §3
A. 0.1% (w/v) sodium benzoate
B. 0.2% (w/v) sodium benzoate
C. 0.02% (w/v) sodium dehydroacetate
D. 0.25% (w/v) sodium propionate group
E. 0.5% (w/v) sodium propionate group
as §4, §5, §6, §7

Regarding `CCS(=O)(=O)CCn1c([N+](=O)[O-])cnc1C` [tinidazole], the “cure rate for BV” value is given as 37% with BV (FDA 1998 guideline, both the clinical and microbiological cure standards met); 57% with BV (cure if 3 of the 4 traditional Amsel clinical criteria are normal).
As for `OC[C@H]1O[C@H](O[C@H]2[C@H](O)[C@@H](O)C(O)O[C@@H]2CO)[C@H](O)[C@@H](O)[C@@H]1O` (mixture of isomers) [Maltose, maltose], the “pH of the gel” value with BV-associated bacteria [1] (Specimen 1, 0 hr (initial)) is listed as 5.4; in the assay on BV-associated bacteria [1] (Specimen 1, 14 hrs, slightly aerobic, 37° C., initial pH 5.4), 3.8; in the assay with BV-associated bacteria [1] (Specimen 1, 46 hrs, slightly aerobic, 37° C., initial pH 5.4), ≤3.8; in the assay on BV-associated bacteria [1] (Specimen 2, 0 hr (initial)), 5.4; in the assay on BV-associated bacteria [1] (Specimen 2, 14 hrs, slightly aerobic, 37° C., initial pH 5.4) it was 4.1-4.4; with BV-associated bacteria [1] (Specimen 2, 46 hrs, slightly aerobic, 37° C., initial pH 5.4), ≤3.8. For the same compound, the “pH of the gel” value was 5.4 in the assay on BV-associated bacteria [1] (Specimen 3, 0 hr (initial)); 4.1-4.4 with BV-associated bacteria [1] (Specimen 3, 14 hrs, slightly aerobic, 37° C., initial pH 5.4); ≤3.8 in the assay on BV-associated bacteria [1] (Specimen 3, 36 hrs, slightly aerobic, 37° C., initial pH 5.4); 5.4 with BV-associated bacteria [1] (Specimen 4, 0 hr (initial)); 4.6 in the assay on BV-associated bacteria [1] (Specimen 4, 14 hrs, slightly aerobic, 37° C., initial pH 5.4); ≤3.8 in the assay on BV-associated bacteria [1] (Specimen 4, 36 hrs, slightly aerobic, 37° C., initial pH 5.4). Also, the “pH of the gel” value is 5.4 in the assay with BV-associated bacteria [1] (Specimen 5, 0 hr (initial)); 4.1-4.4 with BV-associated bacteria [1] (Specimen 5, 14 hrs, slightly aerobic, 37° C., initial pH 5.4); 4.1-4.4 in the assay on BV-associated bacteria [1] (Specimen 5, 36 hrs, slightly aerobic, 37° C., initial pH 5.4). Also, the “pH of the semi-solid agar” value in the assay on BV-associated bacteria [2] (Specimen 1), with BV-associated bacteria [2] (Specimen 2), with BV-associated bacteria [2] (Specimen 3), in the assay on BV-associated bacteria [2] (Specimen 4) and in the assay on BV-associated bacteria [2] (Specimen 5) was 3.8 each time. Besides, the “samples positive for Lactobacilli, In total” value in [3] stood at 8. Further, the “total number of samples positive for L. amylovorus incubation” value in [3] amounted to 1. In assay [3], the “total number of samples positive for L. crispatus incubation” value is given as 1. The “total number of samples positive for L. gasseri incubation” value in [3] came to 2. In assay [3], the “total number of samples positive for L. iners incubation” value was found to be 0. Also, the “total number of samples positive for L. jensenii incubation” value in [3] was found to be 3. Further, in assay [3], the “total number of samples positive for L. mucosae incubation” value is listed as 1. For the same compound, the “number of samples positive for Bifidobacterium bifidum” value in assay [4] is given as 1 (8). Besides, in assay [4], the “number of samples positive for Bifidobacterium breve” value is listed as 0. Also, the “number of samples positive for Bifidobacterium dentium” value in assay [4] is 0. In assay [4], the “number of samples positive for Bifidobacterium longum” value is 0. In assay [4], the “samples positive for Bifidobacteria, In total” value is on record as 1. In assay [5], the “number of samples positive for Gardnerella vaginalis” value was 6 (2, 6, 7, 9, 15, 19). The “samples positive for Gardnerella vaginalis, In total” value in [5] is on record as 6. Moreover, the “residual carbohydrate content by HPLC” value in the assay on Canidia albicans (Canidia albicans 1) was “Not detected^1”; in the assay with Canidia albicans (Canidia albicans 2) it was “Not detected”. Moreover, the residual concentration entry in the assay on Canidia albicans (both strains of Canidia albicans, 72 hrs, initial 1.5% (w/v)) is “below 0.05 % (w/v)”.
For `O=C(CO)[C@@H](O)[C@H](O)[C@H](O)CO` [Fructose, fructose], the “pH of the semi-solid agar” value in the assay on BV-associated bacteria [2] (Specimen 1) is 4.6; in the assay with BV-associated bacteria [2] (Specimen 2), 4.1; in the assay on BV-associated bacteria [2] (Specimen 3), 3.8-4.1; in the assay with BV-associated bacteria [2] (Specimen 4), 4.1; in the assay on BV-associated bacteria [2] (Specimen 5), 3.8.
For the compound `Cc1ncc([N+](=O)[O-])n1CCO` [metronidazole], in the assay with BV (BV patients), the cure rate entry was “about 60%”.
For the compound `O=C([O-])c1ccccc1.[Na+]` [sodium benzoate], in the assay with L. jensenii (0.1% (w/v) sodium benzoate), the “turbidity, Lactobacilli (0 hr)” value is on record as 0.6 and the “turbidity, Lactobacilli (22 hrs)” value is 0.9. For the same compound, in the assay on L. jensenii (0.2% (w/v) sodium benzoate), the “turbidity, Lactobacilli (0 hr)” value is 0.7 and the “turbidity, Lactobacilli (22 hrs)” value is 0.7. Further, in the assay on Candida glabrada isolate (0.1% (w/v) sodium benzoate), the “turbidity, Candida (0 hr)” value is recorded as 0.6 and the “turbidity, Candida (72 hrs)” value is given as 7.1. In the assay with Candida glabrada isolate (0.2% (w/v) sodium benzoate), the “turbidity, Candida (0 hr)” value is recorded as 0.6 and the “turbidity, Candida (72 hrs)” value is reported as 2.1.
As for `CCC(=O)[O-].[Na+]` [sodium propionate], in the assay with L. jensenii (0.25% (w/v) sodium propionate), the “turbidity, Lactobacilli (0 hr)” value came out at 0.6 and the “turbidity, Lactobacilli (22 hrs)” value is on record as 5.2. For the same compound, in the assay with L. jensenii (0.5% (w/v) sodium propionate), the “turbidity, Lactobacilli (0 hr)” value turned out to be 0.4 and the “turbidity, Lactobacilli (22 hrs)” value was determined as 1.7. For the same compound, in the assay with Candida glabrada isolate (0.25% (w/v) sodium propionate), the “turbidity, Candida (0 hr)” value came out at 0.5 and the “turbidity, Candida (72 hrs)” value is listed as >7.5. In the assay on Candida glabrada isolate (0.5% (w/v) sodium propionate), the “turbidity, Candida (0 hr)” value was 0.4 and the “turbidity, Candida (72 hrs)” value stood at 6.3.
As to `CC(=O)c1c([O-])cc(C)oc1=O.[Na+]` [sodium dehydroacetate], in the assay on L. jensenii (setting [6]), the “turbidity, Lactobacilli (0 hr)” value was 0.5 and the “turbidity, Lactobacilli (22 hrs)” value was 1.4. For the same compound, in the assay with Candida glabrada isolate (setting [6]), the “turbidity, Candida (0 hr)” value is reported as 0.5 and the “turbidity, Candida (72 hrs)” value came to 3.9.
